Where two headings read alike, the source gives them in different places.
Columns and labels:
His6-TEV-PPARγ-(234-505) = molecular target: T1, His6-TEV-PPARγ-(234-505) (Homo sapiens, UniProt P37231); test: TR-FRET Assay to Measure Co-R Peptide Recruitment to PPARγ; assay type: biochemical; conditions: Co-R peptide (SMRT-ID2) recruitment; top final concentration 20 μM; read-out: TR-FRET i-Ag; AC50
T1 construct: The His6-TEV-PPARγ-(234-505) protein for assay was expressed and purified; TEV cleavage site (N); made in house
T1 sequence (P37231 234-505): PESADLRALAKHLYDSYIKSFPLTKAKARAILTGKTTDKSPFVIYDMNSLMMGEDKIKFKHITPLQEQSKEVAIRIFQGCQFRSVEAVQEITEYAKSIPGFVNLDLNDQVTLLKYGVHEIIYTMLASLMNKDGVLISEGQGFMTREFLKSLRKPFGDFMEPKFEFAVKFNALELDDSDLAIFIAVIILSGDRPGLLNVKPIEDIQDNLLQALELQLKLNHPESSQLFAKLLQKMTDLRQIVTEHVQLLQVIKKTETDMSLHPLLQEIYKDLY
Method in brief: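 Corepressor recruitment is measured by adding terbium-labeled anti-His antibody and FITC SMRT-ID2 peptide, at 5 and 200 nM final, after a 20-minute room-temperature protein–compound incubation. After one further hour, signal is converted to percent response between DMSO and 500 nM T0070907 wells.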

UM-UC-9 engineered cells = test: Cell proliferation / short-term viability assay, CellTiter-Glo 144 h; assay type: cell-based, human; conditions: read-out: CTGlo 144 h UMUC9.5, G150
Method in brief: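 Viability read by CellTiter-Glo 2.0 luminescence at day 7 versus DMSO-vehicle wells and a T0 plate measured on day 0. Cells: UM-UC-9 engineered assay-ready stocks, 500 cells/well in high-glucose DMEM with 10% FBS, 37° C, 5% CO2.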

| SMILES | AC50 (His6-TEV-PPARγ-(234-505)) [nM] | IC50 (UM-UC-9 engineered cells) [nM] | IC50 (UM-UC-9 engineered cells; Homo sapiens, UM-UC-9, 144 h) [nM] |
| --- | --- | --- | --- |
| COc1cc(-c2cc(C(=O)N3CCC(C(=O)NC4CCN(c5cnnc(C)c5)C4)CC34CC4)n[nH]2)c(F)cn1 (mixture of isomers) [Example 452, (S)-4-(5-(5-fluoro-2-methoxypyridin-4-yl)-1H-pyrazole-3-carbonyl)-N—((S)-1-(6-methylpyridazin-4-yl)pyrrolidin-3-yl)-4-azaspiro[2.5]octane-7-carboxamide and ('S)-4-(5-(5-fluoro-2-methoxypyridin-4-yl)-1H-pyrazole-3-carbonyl)-N—((R)-1-(6-methylpyridazin-4-yl)pyrrolidin-3-yl)-4-azaspiro[2.5]octane-7-carboxamide] | 33.4 | 2390 | – |
| COc1cc(-c2cc(C(=O)N3CCC(C(=O)NC4CCN(c5cnc(C)nc5)C4)CC34CC4)n[nH]2)c(F)cn1 (mixture of isomers) [Example 453, (S)-4-(5-(5-fluoro-2-methoxypyridin-4-yl)-1H-pyrazole-3-carbonyl)-N—((S)-1-(2-methylpyrimidin-5-yl)pyrrolidin-3-yl)-4-azaspiro[2.5]octane-7-carboxamide and (S)-4-(5-(5-fluoro-2-methoxypyridin-4-yl)-1H-pyrazole-3-carbonyl)-N—((R)-1-(2-methylpyrimidin-5-yl)pyrrolidin-3-yl)-4-azaspiro[2.5]octane-7-carboxamide] | 25.6 | 44.2 | – |
| COc1cc(-c2cc(C(=O)N3CCC(C(=O)NC4CCN(CC5(O)COC5)C4)CC34CC4)n[nH]2)c(F)cn1 (mixture of isomers) [Example 454, (S)-4-(5-(5-fluoro-2-methoxypyridin-4-yl)-1H-pyrazole-3-carbonyl)-N—((R)-1-((3-hydroxyoxetan-3-yl)methyl)pyrrolidin-3-yl)-4-azaspiro[2.5]octane-7-carboxamide and (S)-4-(5-(5-fluoro-2-methoxypyridin-4-yl)-1H-pyrazole-3-carbonyl)-N—((S)-1-((3-hydroxyoxetan-3-yl)methyl)pyrrolidin-3-yl)-4-azaspiro[2.5]octane-7-carboxamide] | 196 | 999 | – |
| COc1cc(-c2cc(C(=O)N3CCC(C(=O)NC4CCN(CC(F)(F)CO)C4)CC34CC4)n[nH]2)c(F)cn1 (mixture of isomers) [Example 459, (S)—N—((S)-1-(2,2-difluoro-3-hydroxypropyl)pyrrolidin-3-yl)-4-(5-(5-fluoro-2-methoxypyridin-4-yl)-1H-pyrazole-3-carbonyl)-4-azaspiro[2.5]octane-7-carboxamide and (S)—N—((R)-1-(2,2-difluoro-3-hydroxypropyl)pyrrolidin-3-yl)-4-(5-(5-fluoro-2-methoxypyridin-4-yl)-1H-pyrazole-3-carbonyl)-4-azaspiro[2.5]octane-7-carboxamide] | 11.7 | 102 | – |
| COc1cc(-c2cc(C(=O)N3CCC(C(=O)NC4CCN(C5COC56CNC6)C4)CC34CC4)n[nH]2)c(F)cn1 (mixture of isomers) [Example 461] | 440 | > 10000 | – |
| COc1cc(-c2cc(C(=O)N3CCC(C(=O)NCc4ncc(N5CC6CC5CN6)cc4Cl)CC34CC4)n[nH]2)c(F)cn1 (mixture of isomers) [Example 462, (S)—N-((5-((1R,4R)-2,5-diazabicyclo[2.2.1]heptan-2-yl)-3-chloropyridin-2-yl)methyl)-4-(3-(5-fluoro-2-methoxypyridin-4-yl)-1H-pyrazole-5-carbonyl)-4-azaspiro[2.5]octane-7-carboxamide and (S)—N-((5-((1S,4S)-2,5-diazabicyclo[2.2.1]heptan-2-yl)-3-chloropyridin-2-yl)methyl)-4-(3-(5-fluoro-2-methoxypyridin-4-yl)-1H-pyrazole-5-carbonyl)-4-azaspiro[2.5]octane-7-carboxamide] | 14.1 | 513 | – |
| COc1cc(-c2cc(C(=O)N3CCC(C(=O)NC4CCN(C5COC56CCC6)C4)CC34CC4)n[nH]2)c(F)cn1 (mixture of isomers) [Example 464] | 9.3 | 36.4 | – |
| COc1cc(-c2cc(C(=O)N3CCC(C(=O)Nc4cnn5ccc(C6CC6C#N)nc45)CC34CC4)n[nH]2)c(F)cn1 (mixture of isomers) [Example 466, (S)—N-(5-((1S,2S)-2-cyanocyclopropyl)pyrazolo[1,5-a]pyrimidin-3-yl)-4-(5-(5-fluoro-2-methoxypyridin-4-yl)-1H-pyrazole-3-carbonyl)-4-azaspiro[2.5]octane-7-carboxamide and (S)—N-(5-((1R,2R)-2-cyanocyclopropyl)pyrazolo[1,5-a]pyrimidin-3-yl)-4-(5-(5-fluoro-2-methoxypyridin-4-yl)-1H-pyrazole-3-carbonyl)-4-azaspiro[2.5]octane-7-carboxamide] | 5.1 | 51.2 | – |
| COc1cc(-c2cc(C(=O)N3CC[C@H](C(=O)NCc4ncc(N5C[C@H]6C[C@@H]5CN6)cn4)CC34CC4)[nH]n2)c(F)cn1 (mixture of isomers) [Example 467, (S)—N-((5-((1R,4R)-2,5-diazabicyclo[2.2.1]heptan-2-yl)pyrimidin-2-yl)methyl)-4-(3-(5-fluoro-2-methoxypyridin-4-yl)-1H-pyrazole-5-carbonyl)-4-azaspiro[2.5]octane-7-carboxamide and (S)—N-((5-((1S,4S)-2,5-diazabicyclo[2.2.1]heptan-2-yl)pyrimidin-2-yl)methyl)-4-(3-(5-fluoro-2-methoxypyridin-4-yl)-1H-pyrazole-5-carbonyl)-4-azaspiro[2.5]octane-7-carboxamide] | 951 | – | > 10000 |
| COc1cc(-c2cc(C(=O)N3CCC(C(=O)NCc4ncc(N5CCNC6CC65)cn4)CC34CC4)n[nH]2)c(F)cn1 (mixture of isomers) [Example 469, (S)—N-((5-((1S,6R)-2,5-diazabicyclo[4.1.0]heptan-2-yl)pyrimidin-2-yl)methyl)-4-(3-(5-fluoro-2-methoxypyridin-4-yl)-1H-pyrazole-5-carbonyl)-4-azaspiro[2.5]octane-7-carboxamide and (S)—N-((5-((1R,6S)-2,5-diazabicyclo[4.1.0]heptan-2-yl)pyrimidin-2-yl)methyl)-4-(3-(5-fluoro-2-methoxypyridin-4-yl)-1H-pyrazole-5-carbonyl)-4-azaspiro[2.5]octane-7-carboxamide] | 78.5 | 9020 | – |
| COc1cc(-c2cc(C(=O)N3CCC(C(=O)NC4CN(CC5(O)CC5)CC4(F)F)CC34CC4)n[nH]2)c(F)cn1 (mixture of isomers) [Example 470, (S)—N—((R)-4,4-difluoro-1-((1-hydroxycyclopropyl)methyl)pyrrolidin-3-yl)-4-(3-(5-fluoro-2-methoxypyridin-4-yl)-1-pyrazole-5-carbonyl)-4-azaspiro[2.5]octane-7-carboxamide and (S)—N—((S)-4,4-difluoro-1-((1-hydroxycyclopropyl)methyl)pyrrolidin-3-yl)-4-(3-(5-fluoro-2-methoxypyridin-4-yl)-1H-pyrazole-5-carbonyl)-4-azaspiro[2.5]octane-7-carboxamide] | 112 | 897 | – |
| COc1cc(-c2cc(C(=O)N3CCC(C(=O)NC4CCN(c5ncc(C#N)cn5)C4)CC34CC4)n[nH]2)c(F)cn1 (mixture of isomers) [Example 472, (S)—N—((R)-1-(5-cyanopyrimidin-2-yl)pyrrolidin-3-yl)-4-(5-(5-fluoro-2-methoxypyridin-4-yl)-1H-pyrazole-3-carbonyl)-4-azaspiro[2.5]octane-7-carboxamide and (S)—N—((S)-1-(5-cyanopyrimidin-2-yl)pyrrolidin-3-yl)-4-(5-(5-fluoro-2-methoxypyridin-4-yl)-1H-pyrazole-3-carbonyl)-4-azaspiro[2.5]octane-7-carboxamide] | 2.9 | 24.2 | – |
| COc1cc(-c2cc(C(=O)N3CCC(C(=O)NC4CCC(O)(C(F)(F)F)C(O)C4)CC34CC4)n[nH]2)c(F)cn1 (mixture of isomers) [Example 474-A] | 336 | 6210 | – |
| COc1cc(-c2cc(C(=O)N3CCC(C(=O)NC4CCC(O)(C(F)(F)F)C(O)C4)CC34CC4)n[nH]2)c(F)cn1 (mixture of isomers) [Example 474-B] | 4.6 | 50.6 | – |
| CC(O)c1cc(-c2cc(C(=O)N3CCC(C(=O)NCc4ncc(F)cc4Cl)CC34CC4)n[nH]2)c(F)cn1 (mixture of isomers) [Example 478] | 38.8 | 415 | – |
| COc1cc(-c2cc(C(=O)N3CCC(C(=O)NC4CCCn5ccnc54)CC34CC4)n[nH]2)c(F)cn1 (mixture of isomers) [Example 479, (S)-4-(5-(5-fluoro-2-methoxypyridin-4-yl)-1H-pyrazole-3-carbonyl)-N—((R)-5,6,7,8-tetrahydroimidazo[1,2-a]pyridin-8-yl)-4-azaspiro[2.5]octane-7-carboxamide and (S)-4-(5-(5-fluoro-2-methoxypyridin-4-yl)-1H-pyrazole-3-carbonyl)-N—((S)-5,6,7,8-tetrahydroimidazo[1,2-a]pyridin-8-yl)-4-azaspiro[2.5]octane-7-carboxamide] | 132 | 1470 | – |

From patent US12606541B2, “PPARg modulators and methods of use” (Eisai R&D Management Co., Ltd., priority 2020, dated 2026)
